Laboratory results from ChEMBL document CHEMBL1255222, “Exploring the neuroleptic substituent in octoclothepin: potential ligands for positron emission tomography with subnanomolar affinity for α(1)-adrenoceptors” (J Med Chem, 2010).

Tests used:
[1] = Apparent permeability across human Caco-2 cells; format: ADME, cell-based
physchem = details: octanol/water

Compound | Papp [1] [×10⁻⁶ cm/s] | logD (physchem)
CN1CCC(c2cn(-c3ccc(F)cc3)c3ccc(-c4cncnc4)cc23)CC1 | 13 | 1.9
Cn1nnc(-c2ccc3c(c2)c(C2CCN(CCN4CCNC4=O)CC2)cn3-c2ccc(F)cc2)n1 | 12 | 3.06
CC(=O)NCc1ccc2c(c1)C(N1CCN(C)CC1)Cc1ccccc1S2 (racemic) | 33 | 2.65
CC(C)C(=O)NCc1ccc2c(c1)C(N1CCN(C)CC1)Cc1ccccc1S2 (racemic) | 57 | 3.1
CCN1CCC[C@H]1CNC(=O)c1c(O)c(Cl)cc(Cl)c1OC [RACLOPRIDE] | 66 | –
